Measurements reported in PubChem BioAssay (NCI).
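Cultured in 96-well plates, cells were exposed to test compound for 48 hours across five concentrations. TGI: total growth inhibition.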

Tests used:
Experiment in all cases: NCI-60 cell line screen, 48 h
UO-31 renal = system: UO-31 renal
NCI/ADR-RES ovarian = system: NCI/ADR-RES ovarian
SK-MEL-28 melanoma = system: SK-MEL-28 melanoma
BT-549 breast = system: BT-549 breast
HCC-2998 colon = system: HCC-2998 colon
DU-145 prostate = system: DU-145 prostate
MDA-MB-435 = system: MDA-MB-435
KM12 colon = system: KM12 colon
SNB-19 CNS = system: SNB-19 CNS
HCT-15 colon = system: HCT-15 colon
U251 CNS = system: U251 CNS
T-47D breast = system: T-47D breast
NCI-H460 lung = system: NCI-H460 lung
RPMI-8226 leukemia = system: RPMI-8226 leukemia
RXF 393 renal = system: RXF 393 renal
MDA-MB-231 breast = system: MDA-MB-231 breast
786-0 renal = system: 786-0 renal
MALME-3M melanoma = system: MALME-3M melanoma
SW-620 colon = system: SW-620 colon
HOP-62 NSCLC = system: HOP-62 NSCLC
COLO 205 colon = system: COLO 205 colon
UACC-257 melanoma = system: UACC-257 melanoma
HCT-116 colon = system: HCT-116 colon
NCI-H226 lung = system: NCI-H226 lung
OVCAR-3 ovarian = system: OVCAR-3 ovarian
MCF7 breast = system: MCF7 breast
IGROV1 ovarian = system: IGROV1 ovarian
SNB-75 CNS = system: SNB-75 CNS
UACC-62 melanoma = system: UACC-62 melanoma
OVCAR-8 ovarian = system: OVCAR-8 ovarian
A549 NSCLC = system: A549 NSCLC
OVCAR-5 ovarian = system: OVCAR-5 ovarian
TK-10 renal = system: TK-10 renal
OVCAR-4 ovarian = system: OVCAR-4 ovarian
LOX IMVI melanoma = system: LOX IMVI melanoma
SR leukemia = system: SR leukemia
SF-539 CNS = system: SF-539 CNS
EKVX NSCLC = system: EKVX NSCLC
MDA-N = system: MDA-N
HT29 colon = system: HT29 colon
MOLT-4 leukemia = system: MOLT-4 leukemia
NCI-H23 lung = system: NCI-H23 lung
ACHN renal = system: ACHN renal
SK-MEL-5 melanoma = system: SK-MEL-5 melanoma
HL-60(TB) leukemia = system: HL-60(TB) leukemia
K-562 leukemia = system: K-562 leukemia
CAKI-1 renal = system: CAKI-1 renal
SK-OV-3 ovarian = system: SK-OV-3 ovarian
CCRF-CEM leukemia = system: CCRF-CEM leukemia
SF-268 CNS = system: SF-268 CNS
A498 renal = system: A498 renal
SF-295 CNS = system: SF-295 CNS
SN12C renal = system: SN12C renal
HS 578T breast = system: HS 578T breast
HOP-92 NSCLC = system: HOP-92 NSCLC
M14 melanoma = system: M14 melanoma
NCI-H522 lung = system: NCI-H522 lung
SK-MEL-2 melanoma = system: SK-MEL-2 melanoma
PC-3 prostate = system: PC-3 prostate

Structure (SMILES): CC(=O)OCC1=C(C)C(OC(=O)C(OC(C)=O)[C@@H](NC(=O)c2ccccc2)c2ccccc2)CCC1(C)C (stereo partly specified)
- TGI (UO-31 renal): > 100 µM
- TGI (NCI/ADR-RES ovarian): > 100 µM
- TGI (SK-MEL-28 melanoma): > 100 µM
- TGI (BT-549 breast): > 100 µM
- TGI (HCC-2998 colon): > 100 µM
- TGI (DU-145 prostate): > 100 µM
- TGI (MDA-MB-435): > 100 µM
- TGI (KM12 colon): > 100 µM
- TGI (SNB-19 CNS): > 100 µM
- TGI (HCT-15 colon): > 100 µM
- TGI (U251 CNS): > 100 µM
- TGI (T-47D breast): > 100 µM
- TGI (NCI-H460 lung): > 100 µM
- TGI (RPMI-8226 leukemia): > 100 µM
- TGI (RXF 393 renal): > 100 µM
- TGI (MDA-MB-231 breast): > 100 µM
- TGI (786-0 renal): > 100 µM
- TGI (MALME-3M melanoma): > 100 µM
- TGI (SW-620 colon): > 100 µM
- TGI (HOP-62 NSCLC): > 100 µM
- TGI (COLO 205 colon): > 100 µM
- TGI (UACC-257 melanoma): > 100 µM
- TGI (HCT-116 colon): > 100 µM
- TGI (NCI-H226 lung): > 100 µM
- TGI (OVCAR-3 ovarian): > 100 µM
- TGI (MCF7 breast): > 100 µM
- TGI (IGROV1 ovarian): > 100 µM
- TGI (SNB-75 CNS): > 100 µM
- TGI (UACC-62 melanoma): > 100 µM
- TGI (OVCAR-8 ovarian): > 100 µM
- TGI (A549 NSCLC): > 100 µM
- TGI (OVCAR-5 ovarian): > 100 µM
- TGI (TK-10 renal): > 100 µM
- TGI (OVCAR-4 ovarian): > 100 µM
- TGI (LOX IMVI melanoma): > 100 µM
- TGI (SR leukemia): > 100 µM
- TGI (SF-539 CNS): > 100 µM
- TGI (EKVX NSCLC): > 100 µM
- TGI (MDA-N): > 100 µM
- TGI (HT29 colon): > 100 µM
- TGI (MOLT-4 leukemia): > 100 µM
- TGI (NCI-H23 lung): > 100 µM
- TGI (ACHN renal): > 100 µM
- TGI (SK-MEL-5 melanoma): > 100 µM
- TGI (HL-60(TB) leukemia): > 100 µM
- TGI (K-562 leukemia): > 100 µM
- TGI (CAKI-1 renal): > 100 µM
- TGI (SK-OV-3 ovarian): > 100 µM
- TGI (CCRF-CEM leukemia): > 100 µM
- TGI (SF-268 CNS): > 100 µM
- TGI (A498 renal): > 100 µM
- TGI (SF-295 CNS): > 100 µM
- TGI (SN12C renal): > 100 µM

Structure (SMILES): CN(C)Cc1cc(N=Nc2ccccc2)cc(CN(C)C)c1O
- TGI (UO-31 renal): > 100 µM
- TGI (NCI/ADR-RES ovarian): > 100 µM
- TGI (SK-MEL-28 melanoma): > 100 µM
- TGI (BT-549 breast): > 100 µM
- TGI (HCC-2998 colon): > 100 µM
- TGI (DU-145 prostate): > 100 µM
- TGI (MDA-MB-435): > 100 µM
- TGI (KM12 colon): > 100 µM
- TGI (SNB-19 CNS): > 100 µM
- TGI (HCT-15 colon): > 100 µM
- TGI (U251 CNS): > 100 µM
- TGI (T-47D breast): > 100 µM
- TGI (NCI-H460 lung): > 100 µM
- TGI (RPMI-8226 leukemia): > 100 µM
- TGI (RXF 393 renal): > 100 µM
- TGI (HS 578T breast): > 100 µM
- TGI (MDA-MB-231 breast): > 100 µM
- TGI (786-0 renal): > 100 µM
- TGI (MALME-3M melanoma): > 100 µM
- TGI (SW-620 colon): > 100 µM
- TGI (HOP-62 NSCLC): > 100 µM
- TGI (COLO 205 colon): > 100 µM
- TGI (UACC-257 melanoma): > 100 µM
- TGI (HCT-116 colon): > 100 µM
- TGI (NCI-H226 lung): > 100 µM
- TGI (OVCAR-3 ovarian): > 100 µM
- TGI (IGROV1 ovarian): > 100 µM
- TGI (SNB-75 CNS): > 100 µM
- TGI (HOP-92 NSCLC): > 100 µM
- TGI (UACC-62 melanoma): > 100 µM
- TGI (OVCAR-8 ovarian): > 100 µM
- TGI (M14 melanoma): > 100 µM
- TGI (A549 NSCLC): > 100 µM
- TGI (OVCAR-5 ovarian): > 100 µM
- TGI (TK-10 renal): > 100 µM
- TGI (OVCAR-4 ovarian): > 100 µM
- TGI (LOX IMVI melanoma): > 100 µM
- TGI (SR leukemia): > 100 µM
- TGI (SF-539 CNS): > 100 µM
- TGI (EKVX NSCLC): > 100 µM
- TGI (MDA-N): > 100 µM
- TGI (HT29 colon): > 100 µM
- TGI (MOLT-4 leukemia): > 100 µM
- TGI (NCI-H23 lung): > 100 µM
- TGI (ACHN renal): > 100 µM
- TGI (NCI-H522 lung): > 100 µM
- TGI (SK-MEL-5 melanoma): > 100 µM
- TGI (HL-60(TB) leukemia): 66.9 µM
- TGI (K-562 leukemia): > 100 µM
- TGI (SK-MEL-2 melanoma): > 100 µM
- TGI (CAKI-1 renal): > 100 µM
- TGI (PC-3 prostate): > 100 µM
- TGI (SK-OV-3 ovarian): > 100 µM
- TGI (CCRF-CEM leukemia): 94.3 µM
- TGI (SF-268 CNS): > 100 µM
- TGI (A498 renal): > 100 µM
- TGI (SF-295 CNS): > 100 µM
- TGI (SN12C renal): > 100 µM
